We go through 28 molecules from patent US20230047816A1 (priority 2018, published 2023).

Molecules are shown by their SMILES. pEC50, pIC50: −log10 of the molar value. Structures can show the parent of a compound that is named as a salt. Some results are limits rather than exact numbers.

For experiment [1], the system named is neurons. Kind of experiment: Neuroprotection, protection factor, b-amyloid treatment. Format: cell-based. As to conditions: Treatment beta-amyloid, 24 hours. The procedure: (§1) For NMDAR activation, neurons at 8 days in vitro were incubated 100 μM NMDA (plus 10 μM glycine) for 10 minutes. Neurons were then washed and further incubated in culture medium with the PFKFB3 inhibitors for 24 hours. For b-amyloid treatment, neurons at 8 days in vitro were incubated with […] b-amyloid plus the PFKFB3 inhibitors for 24 hours. The Protection factor was estimated as [AMC(beta-A)−AMC(DMSO)]/[AMC(beta-A)−AMC(Test article)] or [AMC(beta-A)−AMC(DMSO)]/[AMC(NMDA)−AMC(Test article)], where:
(§2) AMC(DMSO)—% dead neuron in case of DMSO treatment
AMC(beta—A)—% dead neuron in case of b—amyloid treatment
(§3) AMC(Test article)—% dead neuron in case of PFKFB3 inhibitors treatment.

The next experiment deals with established tumors. As to conditions: reported in the literature; cited from earlier work.
In another experiment the target is PFKFB3 (Homo sapiens, UniProt Q16875). As to conditions: reported in the literature; cited from earlier work.
For experiment [2] the following is noted: reported in the literature; cited from earlier work.
The target in experiment [3] is Recombinant full length human PFKFB3 (Homo sapiens, UniProt Q16875). Put plainly: PFKFB3 kinase activity assay (ADP production, ADP-Glo). For orientation: In ADP-Glo the light output rises with the ADP produced.
Method: (§5) Recombinant full length human PFKFB3 (or PFKFB4) protein purified from Sf9 baculoviral system was acquired from SignalChem (Cat. #P323-30G or P324-30G). ATP, Fructose-6-Phosphate and other chemicals were from Sigma-Aldrich. The kinase activity of the PFKFB3 (PFKFB4) protein was detected by measuring production of ADP from ATP in the presence of the Fructose-6-Phosphate substrate. The kinase reactions were assembled in 384 well plates in a total volume of 25 μL. Test compounds were serially diluted in DMSO. Reactions were set up by first mixing test compounds with enzyme and pre-incubating for 15 min. The ATP and Fructose-6-Phosphate substrates were next added to initiate the kinase reactions.
(§6) The compounds of invention listed below in this example were tested at various concentrations (which also added 1% DMSO from compounds, to the final solution) as described below. The kinase reactions were allowed to proceed for 1 h at room temperature. Aliquots of the reaction mixtures (5 μL) were transferred to fresh white 384 well plates and mixed with 5 μL of the ADP-Glo reagent (Promega), followed by incubation for 30 min. The luminescent Kinase Detection reagent was added (10 μL) and, following additional incubation for 15 min, the plates were read on luminescence plate reader (Analyst HT). Positive (100%-inhibition) and negative (0%-inhibition) control samples were assembled in each assay plate and were used to calculate percent inhibition values of test compounds. All experiments were performed in duplicate.
Experiment [4] concerns the target Recombinant full length human PFKFB4 (Homo sapiens, UniProt Q16877). Put plainly: PFKFB4 kinase activity assay (ADP production, ADP-Glo).
Method: as §5, §6
A further experiment concerns HUVEC spheroids. Kind of experiment: VEGF-A induced sprouting, spheroid-based cellular angiogenesis assay. It is filed as cell-based. As to conditions: Homo sapiens. The procedure:
The effect of PFKFB3 inhibitors on VEGF-A induced sprouting of HUVECs in a spheroid-based cellular angiogenesis assay. Sunitinib was used as a control. The experiments were pursued in modification of the originally published protocol (Korff and Augustin: J Cell Sci 112: 3249-58, 1999). In brief, spheroids were prepared as described (Korff and Augustin: J Cell Biol 143:1341-52, 1998) by pipetting 500 HUVEC in a hanging drop on plastic dishes to allow overnight spheroid aggregation. 50 HUVEC spheroids were then seeded in 0.9 ml of a collagen gel and pipetted into individual wells of a 24 well plate to allow polymerization. The test compounds in combination with the growth factor VEGF-A at 25 ng/ml final assay concentration) were added after 30 min by pipetting 100 μl of a 10-fold concentrated working solution on top of the polymerized gel. Plates were incubated at 37° C. for 24 hours and fixed by adding 4% Roti-Histofix (Roth, Karlsruhe, Germany). Sprouting intensity of HUVEC spheroids treated with the growth factor and the inhibitors were quantitated by an image analysis system determining the cumulative sprout length per spheroid (CSL) using an inverted microscope and the digital imaging software NIS-Elements BR 3.0 (Nikon). The mean of the cumulative sprout length of 10 randomly selected spheroids was analyzed as an individual data point.

The test system of the next experiment is MDA-MB-468. Kind of experiment: Combination with anticancer agents, MDA-MB-468. As to conditions: Homo sapiens, anticancer agent alone. Format: cell-based. Here is the method: (§4) All cells can be incubated in the plates overnight at 37° C., 5% 002 incubator with different medium.
Experiment [5] concerns neurons. Put plainly: Neuroprotection, protection factor, NMDA treatment. Format: cell-based. As to conditions: Treatment NMDA 100 μM 10 minutes, then inhibitor 24 hours. The procedure: as §1, §2
AMC(NMDA)—% dead neuron in case of NMDA treatment
as §3

For a further experiment, the system named is T-47D. Put plainly: Combination with anticancer agents, T-47D. Format: cell-based. As to conditions: Homo sapiens, T47D, anticancer agent alone. The procedure:
as §4

Chain of Recombinant full length human PFKFB4 (Q16877 whole entry): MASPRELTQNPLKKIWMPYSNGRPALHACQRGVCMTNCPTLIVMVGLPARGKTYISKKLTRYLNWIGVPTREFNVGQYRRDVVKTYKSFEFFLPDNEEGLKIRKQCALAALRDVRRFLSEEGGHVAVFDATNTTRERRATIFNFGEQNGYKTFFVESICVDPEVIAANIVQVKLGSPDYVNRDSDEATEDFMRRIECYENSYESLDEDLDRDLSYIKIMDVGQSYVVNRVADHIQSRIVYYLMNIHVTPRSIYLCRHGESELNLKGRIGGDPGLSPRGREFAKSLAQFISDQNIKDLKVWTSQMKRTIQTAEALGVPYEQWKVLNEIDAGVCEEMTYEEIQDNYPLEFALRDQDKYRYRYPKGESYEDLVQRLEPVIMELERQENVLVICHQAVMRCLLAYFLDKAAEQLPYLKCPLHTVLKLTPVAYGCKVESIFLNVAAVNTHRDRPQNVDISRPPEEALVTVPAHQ
Chain of Recombinant full length human PFKFB3 (Q16875 whole entry): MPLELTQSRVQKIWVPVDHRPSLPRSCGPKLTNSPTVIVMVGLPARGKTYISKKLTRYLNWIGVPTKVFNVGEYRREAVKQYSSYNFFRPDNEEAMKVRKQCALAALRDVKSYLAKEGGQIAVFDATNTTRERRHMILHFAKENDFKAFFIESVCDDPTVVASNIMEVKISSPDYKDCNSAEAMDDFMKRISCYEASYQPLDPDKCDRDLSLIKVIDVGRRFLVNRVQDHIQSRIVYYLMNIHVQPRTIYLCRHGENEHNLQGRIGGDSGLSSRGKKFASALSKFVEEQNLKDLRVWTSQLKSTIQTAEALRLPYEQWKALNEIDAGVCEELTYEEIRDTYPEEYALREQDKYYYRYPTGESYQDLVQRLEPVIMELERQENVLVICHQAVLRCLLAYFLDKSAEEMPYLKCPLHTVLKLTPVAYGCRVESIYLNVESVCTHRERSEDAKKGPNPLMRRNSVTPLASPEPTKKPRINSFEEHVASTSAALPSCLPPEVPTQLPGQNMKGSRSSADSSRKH
Chain of PFKFB3 (Q16875 whole entry, species assumed): as the sequence (Q16875 whole entry) above

As to `O=C(O)c1ccc(-c2ccc(F)c(F)c2)cc1N1Cc2ccc(-c3cn[nH]n3)cc2C1=O`, in the experiment on neurons [1], the Protection factors amounted to 12.17. For `O=C(/C=C/c1ccc2ccc(C(F)(F)F)cc2n1)c1ccncc1` [ACT-PFK-158, (E)-1-(pyridin-4-yl)-3-(7-(trifluoromethyl)quinolin-2-yl)prop-2-en-1-one], the “growth of established tumors in vivo” value with established tumors was “reduce growth of established tumors in vivo”. In addition, the PFKFB3 inhibition result on PFKFB3 is listed as “inhibit PFKFB3”. Moreover, in [2], the glucose uptake result was “reduce glucose uptake” and the “intracellular concentration of Fru-2,6-BP” value is “reduce intracellular concentration of Fru-2,6-BP”. Regarding `O=C(O)c1ccc2c(c1)C(=O)N(c1cc(-c3ccc(Cl)cc3Cl)ccc1C(=O)O)C2=O`, in the experiment on neurons [1], the Protection factors is 1.75. A word on the pIC50: it is the negative decadic logarithm of the IC50, by convention in mol/L. As to `O=C(O)c1cc2c(cc1O)C(=O)N(c1cc(-c3ccc(F)c(F)c3)ccc1C(=O)O)C2=O` [Compound 144a, 2-(4-Carboxy-3′,4′-difluoro[1,1′-biphenyl]-3-yl)-6-hydroxy-1,3-dioxo-2,3-dihydro-1H-isoindole-5-carboxylic acid], the negative-log IC50 (pIC50) in experiment [3] and in experiment [4] was greater than 6.30 in each case.

The pEC50 is the EC50 on a negative log10 scale, so that one unit is a factor of ten. As for `CCN(CC)CCNC(=O)c1c(C)[nH]c(/C=C2\C(=O)Nc3ccc(F)cc32)c1C` [Sunitinib, reference compound], in the experiment with HUVEC spheroids (HUVEC, positive control, read-out: maximal effect (inhibition of vessel sprouting)), the Emax is 100%. Moreover, the pEC50 in the experiment with HUVEC spheroids (3D HUVEC model, VEGF-A 25 ng/ml, 24 hours, read-out: EC50 of inhibition of vessel sprouting) is 7.00.

Regarding `O=C(O)c1ccc(-c2ccccc2)cc1N1C(=O)c2cc(Cl)c(-c3cnn[nH]3)cc2C1=O` [Compound 144c, 3-[5-Chloro-1,3-dioxo-6-(1H-1,2,3-triazol-5-yl)-2,3-dihydro-1H-isoindol-2-yl][1,1′-biphenyl]-4-carboxylic Acid], the pIC50 in [3] and in experiment [4] was greater than 6.30 throughout. As for `CC(=O)O[C@H]1C(=O)[C@@]2(C)[C@H]([C@H](OC(=O)c3ccccc3)[C@]3(O)C[C@H](OC(=O)[C@H](O)[C@@H](NC(=O)c4ccccc4)c4ccccc4)C(C)=C1C3(C)C)[C@]1(OC(C)=O)CO[C@@H]1C[C@@H]2O` [Paclitaxel], the pIC50 in the experiment on MDA-MB-468 is 8.00.

In the experiment with neurons [5], `CC(CN(C)C)OC(=O)c1ccc(-c2ccc(F)c(F)c2)cc1N1Cc2ccc(-c3cn[nH]n3)cc2C1=O` (stereo not shown) displayed a Protection factors of 2.56. For the molecule `CN(C)CCOC(=O)c1ccc(-c2ccc(Cl)cc2Cl)cc1NC(=O)c1ccc(C(=O)N=S(C)(C)=O)cc1C(=O)O`, the Protection factors with neurons [1] is on record as 1.43. Take `O=C(O)c1ccc2c(c1)C(=O)N(c1cc(-c3ccc(Cl)c(F)c3)ccc1C(=O)O)C2=O` [Compound 143, 2-(4-Carboxy-4′-chloro-3′-fluoro[1,1′-biphenyl]-3-yl)-1,3-dioxo-2,3-dihydro-1H-isoindole-5-carboxylic acid]: the pIC50 in [3] and in experiment [4] was greater than 6.30 in each case. With `O=C(O)c1cc(C(=O)O)c(C(=O)Nc2cc(-c3ccc(Cl)cc3Cl)ccc2C(=O)O)cc1O` [4-({4-carboxy-2′,4′-dichloro-[1,1′-biphenyl]-3-yl}carbamoyl)-6-hydroxybenzene-1,3-dicarboxylic acid], in the experiment with neurons [1], the Protection factors worked out at 8.07. For `O=C(O)c1ccc(-c2ccc(F)c(F)c2)cc1N1C(=O)c2cc(Cl)c(-c3cnn[nH]3)cc2C1=O` [Compound 144b, 3-[5-Chloro-1,3-dioxo-6-(1H-1,2,3-triazol-5-yl)-2,3-dihydro-1H-isoindol-2-yl]-3′,4′-difluoro[1,1′-biphenyl]-4-carboxylic Acid], the pIC50 in experiment [3] and in [4] was greater than 6.30 each time.

In the case of `O=C(c1cc(Cc2n[nH]c(=O)c3ccccc23)ccc1F)N1CCN(C(=O)C2CC2)CC1` [Olaparib], the pIC50 in the experiment with T-47D was 4.41.

In the experiment on neurons [1], `O=C(O)c1ccc(-c2ccc(F)c(F)c2)cc1N1C(=O)c2cc(Cl)c(-c3cn[nH]n3)cc2C1=O` displayed a Protection factors of 1.15. Regarding `O=C(O)c1ccc2c(c1)C(=O)N(c1cc(-c3ccc(F)c(F)c3)ccc1C(=O)O)C2=O` [Compound 138, 2-(4-Carboxy-3′,4′-difluoro[1,1′-biphenyl]-3-yl)-1,3-dioxo-2,3-dihydro-1H-isoindole-5-carboxylic acid], the pIC50 in [3] and in [4] was greater than 6.30 each time. With `COc1cccc2c1C(=O)c1c(O)c3c(c(O)c1C2=O)C[C@@](O)(C(=O)CO)C[C@@H]3O[C@H]1C[C@H](N)[C@H](O)[C@H](C)O1` [Doxorubicin, Doxorubicin Hydrochloride], in the experiment with MDA-MB-468, the negative logarithm of the IC50 (pIC50) was 7.15.

In the experiment with neurons [1], `CC(C)OC(=O)c1ccc(-c2ccc(F)c(F)c2)cc1N1Cc2ccc(-c3cn[nH]n3)cc2C1=O` showed a Protection factors of 1.43. Same read-out and setting: the value for `CC1(C)CCN(c2ccc(C(=O)O)c(NC(=O)c3cc(O)c(C(=O)O)cc3C(=O)O)c2)CC1` [4-{[2-carboxy-5-(4,4-dimethylpiperidin-1-yl)phenyl]carbamoyl}-6-hydroxybenzene-1,3-dicarboxylic acid] was 4.33.

In the experiment on neurons [5], `O=C(OCC(O)CO)c1ccc(-c2ccc(F)c(F)c2)cc1N1Cc2ccc(-c3cn[nH]n3)cc2C1=O` (stereo not shown) came in with a Protection factors of 1.35. For `Cc1noc(C)c1Cn1cc(C#N)c2cc(Oc3ccc(NC(=O)[C@@H]4CCCN4)cc3)ccc21` [(2S)-N-[4-({3-cyano-1-[(3,5-dimethyl-1,2-oxazol-4-yl)methyl]-1H-indol-5-yl}oxy)phenyl]pyrrolidine-2-carboxamide], the Protection factors in the experiment on neurons [1] is on record as 1.68. The molecule `CC1(C)CCC(c2ccc(C(=O)O)c(NC(=O)c3cc(C(=O)O)c(O)cc3C(=O)O)c2)CC1` [2-{[2-carboxy-5-(4,4-dimethylcyclohexyl)phenyl]carbamoyl}-5-hydroxybenzene-1,4-dicarboxylic acid] returned a Protection factors in the experiment with neurons [1] of 2.05. Turning to `O=C1NCC(COC(=O)c2ccc(-c3ccc(F)c(F)c3)cc2N2Cc3ccc(-c4cn[nH]n4)cc3C2=O)O1` (stereo not shown), in the experiment with neurons [5], the Protection factors came out at 1.05.

On to `O=C(O)c1ccc2c(c1)C(=O)N(c1ccc(-c3ccccc3)cc1C(=O)O)C2=O` [Compound 134, 2-(3-Carboxybiphenyl-4-yl)-1,3-dioxo-2,3-dihydro-1H-isoindole-5-carboxylic acid], for which the pIC50 in [3] and in experiment [4] was greater than 6.30 each time. In the experiment on neurons [1], `O=C(O)c1cc2c(cc1O)C(=O)N(c1cc(-c3ccc(F)c(F)c3)ccc1C(=O)O)C2=O` displayed a Protection factors of 2.15. Turning to `CCOC(=O)c1ccc(-c2ccc(F)c(F)c2)cc1N1Cc2ccc(-c3cnn[nH]3)cc2C1=O` [compound 166, ethyl 3′,4′-difluoro-3-[1-oxo-6-(1H-1,2,3-triazol-5-yl)-2,3-dihydro-1H-isoindol-2-yl][1,1′-biphenyl]-4-carboxylate], the pIC50 in [3] and in [4] was greater than 4.70 each time. In the experiment on neurons [1], `CCOC(=O)c1ccc(-c2ccc(F)c(F)c2)cc1N1Cc2ccc(-c3cn[nH]n3)cc2C1=O` registered a Protection factors of 2.35.

`CC(C)Cn1cc(C#N)c2cc(Oc3ccc(NC(=O)[C@@H]4CCCN4)cc3)ccc21` [(2S)-N-(4-{[3-cyano-1-(2-methylpropyl)-1H-indol-5-yl]oxy]phenyl)pyrrolidine-2-carboxamide] displayed a Protection factors in the experiment on neurons [1] of 1.97. Regarding `O=C(O)c1ccc(-c2ccc(F)c(F)c2)cc1N1C(=O)c2ccc(-c3c[nH]nn3)cc2C1=O` [Compound 82, 3′,4′-Difluoro-3-[1,3-dioxo-5-(1H-[1,2,3]triazol-4-yl)-1,3-dihydroisoindol-2-yl]biphenyl-4-carboxylic Acid], the pIC50 in [3] and in [4] was greater than 6.30 each time.
